Several values for one entry are separate records, joined by “and”; a condition that tells them apart may be missing. Equal values may be shown once.
What was measured:
[1] = test system: human colorectal HCT-116 cancer cell line; experiment: In vitro cytotoxic screening (MTT assay), HCT-116; assay type: cell-based; details: average ± standard deviation
Protocol: (§1) Using human breast MCF-7, colorectal HCT-116, and prostate PC-3 cancer cell lines, preliminary antiproliferative effectiveness of cyclopenta[4,5]thieno[2,3-d][1,2,4]triazolo[1,5-a]pyrimidin-9(6H)-ones 4–16 was established in vitro through MTT assay at different concentrations (100, 50, 25 and 12.5 μM) (Figure 2).
(§2) The cell lines were obtained from Karolinska Center, Department of Oncology and Pathology, Karolinska Institute and Hospital, Stockholm, Sweden. as follows: human breast MCF-7, colorectal HCT-116 and prostate PC-3 cancer cell lines and human skin normal BJ-1 cell line. Exponentially, cells were cultured at a concentration of 10^4 cells/well for 24 h, afterwards fresh medium containing different concentrations of the tested samples was added. Serial two-fold dilution of the tested samples were added using a multichannel pipette. Moreover, all cells were cultivated at 37 °C, 5% CO2 and 95% humidity. Also, incubation of control cells occurred at 37 °C. However, after incubation for 24 h different concentrations of samples (100, 50, 25 and 12.5 µM) were added and the incubation was continued for 48 h, then crystal violet solution 1% was added to each well for 0.5 h to examine the presence of viable cells. After rinsing the wells using water until stain free, 30% glacial acetic acid was added to all wells with shaking the plates on a Microplate reader (TECAN, Inc.) to measure the absorbance at a wavelength of 490 nm. The cytotoxicity was estimated by IC50 in μM, which is the concentration that inhibits 50% of growth of cancer cells. […]
(§3) 1.1. In vitro cytotoxic screening
(§4) The cell lines were obtained from Karolinska Center, Department of Oncology and Pathology, Karolinska Institute and Hospital, Stockholm, Sweden. as follows: human breast MCF-7, colorectal HCT-116 and prostate PC-3 cancer cell lines and human skin normal BJ-1 cell line. Exponentially, cells were placed in 10^4 cells/ well for 24 h, and then add fresh medium which containing different concentration of the tested sample. Serial two-fold dilution of the tested sample were added using a multichannel pipette. Moreover, all cells were cultivated at 37 °C, 5% CO2 and 95% humidity. Also, incubation of control cells occurred at 37 °C. However, after incubation for 24 h different concentrations of sample (100, 50, 25 and 12.5 µM) were added and continued the incubation for 48 h, then, add the crystal violet solution 1% to each well for 0.5 h to examine viable cells. Rinse the wells using water until no stain. After that, add 30% glacial acetic acid to all wells with shaking plates on Microplate reader (TECAN, Inc.) to measure the absorbance, using a test wavelength of 490 nm. Besides, compare the treated samples with the control cell. The cytotoxicity was estimated by IC50 in (μ M), the concentration that inhibits 50% of growth of cancer cell. […]
(§5) The molecular docking simulation of the promising in vitro screened cyclopenta[4,5]thieno[2,3-d][1,2,4]triazolo[1,5-a]pyrimidin-9(6H)-ones 10b and 10e against EGFR and PI3K was done using the Molecular Operating Environment software (MOE-Dock) version 2014.0901. The co-crystallized structures of EGFR and PI3K kinases complexed with their native ligands, erlotinib and quinolone LXX, were downloaded from the protein data bank (PDB codes: 1M17 and 3L54, respectively). All minimizations were performed using MOE until an RMSD gradient of 0.05 kcal∙mol−1Å−1 with MMFF94x force field and the partial charges were automatically calculated. Preparation of the enzyme structures was done for molecular docking using Protonate 3D protocol with the default options in MOE. London dG scoring function and Triangle Matcher placement method were used in the docking protocol. Initially, the original ligands were re-docked into the active binding site of EGFR and PI3K kinases to assess the root-mean-square deviation values. Then, the docking studies of the newly targeted […]

[2] = test system: human prostate PC-3 cancer cell line; experiment: In vitro cytotoxic screening (MTT assay), PC-3; assay type: cell-based; details: average ± standard deviation
Protocol: as §1, §2, §3, §4, §5

[3] = test system: human breast MCF-7 cancer cell line; experiment: In vitro cytotoxic screening (MTT assay), MCF-7; assay type: cell-based; details: for Percentage cytotoxicity on MCF-7: average ± standard deviation; for IC50: Homo sapiens, MCF7, MCF-7, 48 h incubation, mean of three values, read-out: IC50 (Mean ± SD) MCF-7
Protocol: as §1, §2, §3, §4, §5

SMILES	Percentage cytotoxicity on HCT-116 ([1]; 12.5 µM)	Percentage cytotoxicity on HCT-116 ([1]; 25 µM)	Percentage cytotoxicity on HCT-116 ([1]; 50 µM)	Percentage cytotoxicity on HCT-116 ([1]; 100 µM)	melting point	Percentage cytotoxicity on PC-3 ([2]; 12.5 µM)	Percentage cytotoxicity on PC-3 ([2]; 25 µM)	Percentage cytotoxicity on PC-3 ([2]; 50 µM)	Percentage cytotoxicity on PC-3 ([2]; 100 µM)	Percentage cytotoxicity on MCF-7 ([3]; 12.5 µM)	Percentage cytotoxicity on MCF-7 ([3]; 25 µM)	Percentage cytotoxicity on MCF-7 ([3]; 50 µM)	Percentage cytotoxicity on MCF-7 ([3]; 100 µM)	IC50 [3]
O=c1c2c3c(sc2nc2nc([C@H](O)[C@@H](O)[C@H](O)[C@H](O)CO)[nH]n12)CCC3 [Compound 11a, 2-((1S,2R,3R,4R)-1,2,3,4,5-pentahydroxypentyl)-1,6,7,8-tetrahydro-9H-cyclopenta[4,5]thieno[2,3-d][1,2,4]triazolo[1,5-a]pyrimidin-9-one]	12.94±4.6%	12.94±4.6%	25.8±1.6%	32.4±3.9%	> 300 °C	9.9±2.5%	21.9±1.0%	7.3±0.3%	33.9±3.5%	0.0±0.005%	16.2±1.6%	41.3±4.3% and 36.6±6.3%	36.6±6.3% and 41.3±4.3%	
O=c1c2c3c(sc2nc2[nH]c(=S)[nH]n12)CCC3 [Compound 9, 2-Thioxo-2,3,7,8-tetrahydro-1H-cyclopenta[4,5]thieno[2,3-d][1,2,4]triazolo[1,5-a]pyrimidin-9(6H)-one]	0.0±0.005%	0.0±0.005%	0.0±0.005%	0.0±0.005%	> 300 °C	3.7±1.3%	6.3±0.9%	7.8±1.3%	19.3±3.5%	0.0±0.005%	28.4±2.6%	32.7±2.4%	62.5±7.6%	71.8 ± 1.05 µM
CCOC(=O)Cc1nn2c(=O)c3c4c(sc3nc2[nH]1)CCC4 [Compound 6, Ethyl 2-(9-oxo-6,7,8,9-tetrahydro-3H-cyclopenta[4,5]thieno[2,3-d][1,2,4]triazolo[1,5-a]-pyrimidin-2-yl)acetate]	0.0±0.005%	0.0±0.005%	0.0±0.005%	0.0±0.005%	> 300 °C	0.0±0.005%	0.0±0.005%	0.0±0.005%	15.1±4.1%	0.0±0.005%	0.0±0.005%	0.0±0.005%	24±2.5%	
COc1ccc(-c2nn3c(=O)c4c5c(sc4nc3[nH]2)CCC5)cc1 [Compound 10d, 2-(4-Methoxyphenyl)-7,8-dihydro-3H-cyclopenta[4,5]thieno[2,3-d][1,2,4]triazolo[1,5-a]pyrimidin-9(6H)-one]	0.0±0.005%	0.0±0.005%	0.0±0.005%	14.3±4.3%	180 to 182 °C	9.1±6.3%	21.6±0.06%	26.9±1.2%	36.4±3.1%	12.7±2.1%	35.1±5.9%	47.3±8.5%	53.1±6.1%	
O=c1c2c3c(sc2nc2[nH]cnn12)CCC3 [Compound 4, 7,8-Dihydro-3H-cyclopenta[4,5]thieno[2,3-d][1,2,4]triazolo[1,5-a]pyrimidin-9(6H)-one]	0.0±0.005%	0.0±0.005%	0.0±0.005%	9.1±2.0%	> 300 °C	0.0±0.005%	0.0±0.005%	0.0±0.005%	11.3±3.7%	31.5±5.7%	23.6±3.2%	35.5±4.4%	34.8±4.1%	
O=c1c2c3c(sc2nc2nc([C@@H](O)[C@@H](O)[C@H](O)[C@H](O)CO)[nH]n12)CCC3 [Compound 11c, 2-((1R,2R,3R,4R)-1,2,3,4,5-pentahydroxypentyl)-1,6,7,8-tetrahydro-9H-cyclopenta[4,5]thieno[2,3-d][1,2,4]triazolo[1,5-a]pyrimidin-9-one]	12.7±1.7%	19.5±3.7%	22.3±0.9%	20.6±5.4%	> 300 °C	0.0±0.005%	0.0±0.005%	0.0±0.005%	8.5±4.5%	0.0±0.005%	0.0±0.005%	16.5±2.1%	38.7±1.5%	
O=c1c2c3c(sc2nc2[nH]c(-c4ccc(Cl)cc4)nn12)CCC3 [Compound 10a, 2-(4-Chlorophenyl)-7,8-dihydro-3H-cyclopenta[4,5]thieno[2,3-d][1,2,4]triazolo[1,5-a]pyrimidin-9(6H)-one]	14.4±2.3%	17.8±1.7%	17.9±1.7%	20.3±2.1%	220 to 222 °C	20.7±3.9%	30.7±0.5%	35.9±0.8%	40.9±4.1%	16.5±9.5%	33.3±0.8%	44.4±11.2%	61.4±4.7%	60.6 ± 0.45 µM
